Experimental data reported in patent EP0109697B1, “Rodent bait” (priority 1982, dated 1984).

Assays:
Rats [1] = assay: Feeding trials with various acute poisons in formulation C particles (Example 11), rats; assay type: in vivo; settings: RAT, formulation C particle 1.5 × 1.5 mm
Protocol: (§1) Particles containing various acute poisons were made according to Formulation C, and feeding trials were carried out with rats and with mice.

mice [2] = assay: Feeding trials with various acute poisons in formulation C particles (Example 11), mice; assay type: in vivo; settings: MOUSE; formulation C particle 0.45 × 0.45 mm; bait conc. 22.5 ppm
Protocol: as §1

[3] = system: rats with a body weight approximately 250 g; assay: No-choice feeding test of three 100 ppm aldicarb presentations (Example 9), rats; assay type: in vivo, rat; settings: after 5 days
Protocol: (§2) Three baits were produced containing the toxicant aldicarb, each at 100 ppm (0.01%) concentration. Aldicarb was presented in the bait either homogeneously dispersed in the manner of a conventional rodenticide, as discrete 0.4 x 0.4 mm particles, (formulation C) or as discrete 1.0 x 1.0 mm particles. The diluent was medium grade oatmeal in all cases. Tests were carried out on mice with a body weight approximately 20 g, rats with a body weight approximately 250 g, and rabbits with a body weight approximately 2,500 g.
(§3) Baits were offered with no choice of alternative food for five days.

mice [4] = assay: Determination of optimum particle size (Example 10), mice; assay type: in vivo, mouse; settings: formulation C, one particle per 4 g diet base, after 5 days
Excerpt: (§4) Rats were offered medium oatmeal diet containing aldicarb particles (formulation C) at the rate of one per 10 g diet base and mice were offered the particles at the rate of one per 4 g diet base.

male LACA mice [5] = assay: Feeding test of formulation B 0.2 mg particles in oats (Example 6); assay type: in vivo, mouse; settings: 50 g medium oats with 10 particles of formulation B, 0.2 mg aldicarb each; 5 male LACA mice starved for 24 hours; Day 1
Protocol: (§5) Except where otherwise stated, baits according to the invention were produced by thoroughly hand mixing the particles with medium oatmeal, and the baits were fed to caged rats and mice as the sole feed. Water was made freely available to them. The baits remaining in each cage were weighed daily, and fresh baits provided each day.
5 Male LACA mice were starved for 24 hours and then permitted to feed on 50 g of medium oats containing dispersed therein 10 particles of formulation B each containing 0.2 mg of aldicarb.

[6] = system: Heterozygous anti-coagulant resistant rats; assay: Feeding test of formulation A 1.25 mg particles in oatmeal (Example 3); assay type: in vivo, rat; settings: one 1.25 mg particle per 20 grams of oatmeal, bait not changed daily, 5 heterozygous anti-coagulant resistant rats
Protocol: as §5
5 Heterozygous anti-coagulant resistant rats were allowed to feed on bait consisting of medium oatmeal containing one 1.25 mg particle made to formulation A per 20 grams of oatmeal. The bait was weighed daily, but in this example it was not changed daily.

[7] = system: mice with a body weight approximately 20 g; assay: No-choice feeding test of three 100 ppm aldicarb presentations (Example 9), mice; assay type: in vivo, mouse; settings: for Mouse Kill %: no choice, after 5 days
Protocol: as §2, §3

[8] = system: female 300-350 gram Wistar rats; assay: Feeding test of mouse bait particles on rats (Example 8); assay type: in vivo, rat; settings: for Mouse bait particles Rat Kill: 0.1 mg aldicarb particles, one per two grams of oatmeal (50 ppm), five female Wistar rats
Protocol: (§6) Particles of a size suitable for consumption whole (without nibbling) by mice, i.e. about 0.5 mm diameter spheres, containing 0.1 mg of aldicarb per particle were produced by a precipitation process.
(§7) The mouse bait particles were distributed in medium oatmeal at the concentration of one per two grams of oatmeal (50 ppm), and the rat bait particles were distributed in medium oatmeal at the concentration of one per twenty grams of oatmeal (50 ppm).
(§8) Ten male 12-18 gram LAC mice and five female 300-350 gram Wistar rats were permitted to feed on the mouse bait; and five female 300-350 gram Wistar rats were allowed to feed on the rat bait. The baits were topped up when necessary to keep a supply of food material available, and water was supplied freely.

male 12-18 gram LAC mice = assay: Feeding test of mouse bait particles on mice (Example 8); assay type: in vivo; settings: for Mouse bait particles Mouse Kill: 0.1 mg aldicarb particles, one per two grams of oatmeal (50 ppm), ten male LAC mice
Protocol: as §6, §7, §8

male LACA mice [9] = assay: Feeding test of formulation A 0.2 mg particles in oatmeal (Example 5); assay type: in vivo, mouse; settings: 10 male LACA mice
Protocol: as §5
10 Male LACA mice were permitted to feed on bait consisting of medium oatmeal containing one 0.2 mg particle of formulation A per-2 grams of oatmeal.

Rats [10] = assay: Determination of optimum particle size (Example 10), rats; assay type: in vivo, rat; settings: formulation C, one particle per 10 g diet base, after 5 days
Excerpt: as §4

male LACA mice [11] = assay: Feeding test of totally homogeneous aldicarb bait (Example 1), mice; assay type: in vivo, mouse; settings: for Kill Mouse: 100 ppm aldicarb in medium oatmeal, 10 male LACA mice
Excerpt: as §5
(§9) Totally homoneneous baits were produced by slurrying an acetone solution of aldicarb on medium oatmeal to give a concentrate, then diluting the concentrate with medium oatmeal by hand mixing, to give an aldicarb concentration of 100 ppm. The toxicity of the resulting bait was determined by tests on 5 female Wistar rats and 10 male LACA mice.

[12] = system: Male heterozygous resistant rats; assay: Feeding test of formulation B 1.1 mg particles in oatmeal (Example 7); assay type: in vivo, rat; settings: 50 g medium oatmeal with 10 particles of formulation B, 1.1 mg aldicarb each; 3 male heterozygous resistant rats; Day 1
Protocol: as §5
3 Male heterozygous resistant rats were permitted to feed on 50 g medium oatmeal containing 10 particles of formulation B each containing 1.1 mg of aldicarb.

female Wistar rats = assay: Feeding test of totally homogeneous aldicarb bait (Example 1), rats; assay type: in vivo, rat; settings: for Kill Rat: 100 ppm aldicarb in medium oatmeal, 5 female Wistar rats
Excerpt: as §5, §9

[13] = system: rabbits with a body weight approximately 2,500 g; assay: in vivo; assay type: in vivo, rabbit; settings: 100 ppm aldicarb; any of the three formulations
Protocol: as §2, §3

in vivo = assay type: in vivo, rabbit; settings: rabbit, in vivo, po; 100 ppm as HOMOGENEOUS; no choice, after 5 days; read-out: Rabbit Kill %
Protocol: as §2, §3

Wistar females = assay: Feeding test of formulation A 1.25 mg particles in oatmeal (Example 2); assay type: in vivo, rat; settings: one 1.25 mg pellet per 20 grams of oatmeal, 5 Wistar females
Protocol: as §5
The toxicity of aldicarb particles made to formulation A was determined by tests on 5 Wistar females exposed to medium oatmeal containing one 1.25 mg pellet per 20 grams of oatmeal.

male LACA mice [14] = assay: Feeding test of formulation A 0.5 mg particles in oatmeal (Example 4); assay type: in vivo, mouse; settings: 10 male LACA mice
Protocol: as §5
10 Male LACA mice were fed with bait consisting of medium oatmeal containing one 0.5 mg particle made according to formulation A per 10 grams of oatmeal.

[15] = system: female 300-350 gram Wistar rats; assay: Feeding test of rat bait particles on rats (Example 8); assay type: in vivo; settings: for Rat bait particles Rat Kill: 1.0 mg aldicarb particles, one per twenty grams of oatmeal (50 ppm), five female Wistar rats
Protocol: Suitably larger particles appropriate for rats, i.e. about 1 mm x 1 mm cylinders, containing 1.0 mg of aldicarb per particle were produced by extrusion.
as §7, §8

[16] = 100 ppm as 0.4 × 0.4 mm particles (formulation C)
[17] = 100 ppm as 1.0 × 1.0 mm particles
[18] = formulation A 0.5 mg aldicarb particles, 4 days

For `Cc1cc(N(C)C)nc(Cl)n1` [CRIMIDINE, 2 chloro-4-(dimethylamino)-6-methylpyrimidine], the “DAYS TO KILL” value (Rats [1]; bait conc. 250 ppm) was 3 days, the Kill (%) (Rats [1]; bait conc. 250 ppm) was 100% and the “DAYS TO KILL” value (mice [2]) was 5 days. For the same compound, the Kill (%) (mice [2]) was 100%.
For `O=C(O)CF` [SODIUM FLUOROACETATE, Sodium fluoroacetate], the “DAYS TO KILL” value (Rats [1]; bait conc. 250 ppm) was 2 days and the Kill (%) (Rats [1]; bait conc. 250 ppm) was 100%.
In the case of `CC(=O)O[C@@H]1C[C@]2(O)[C@H](CC[C@]3(C)[C@@H](c4ccc(=O)oc4)CC[C@@]32O)[C@@]2(C)CC[C@H](O[C@@H]3O[C@H](CO)[C@@H](O)[C@H](O)[C@H]3O)C=C12` [SCILLIROSIDE, scilliroside], the “DAYS TO KILL” value (Rats [1]; bait conc. 50 ppm) is reported as 2 days and the Kill (%) (Rats [1]; bait conc. 50 ppm) is reported as 100%.
For `CNC(=O)O/N=C/C(C)(C)SC` [aldicarb, 2 methyl-2-(methylthio) propionaldehyde 0-(methylcarbamoyl) oxime], the “Rat Kill %” value [3, 16] was 0%, the “Rat Kill %” value [3, 17] was 100% and the “Rat Kill %” value ([3]; 100 ppm as HOMOGENEOUS) was 0%. For the same compound, the “Kill (%)” value (mice [4]; 12—10 g. Weaner MICE, particle 0.2 × 0.5 mm) was 60%, the “Kill (%)” value (mice [4]; 12—10 g. Weaner MICE, particle 0.4 × 0.4 mm) was 100% and the “Kill (%)” value (mice [4]; 12—10 g. Weaner MICE, particle 0.5 × 0.5 mm) was 70%. For the same compound, the “Kill (%)” value (mice [4]; 12—10 g. Weaner MICE, particle 0.75 × 0.75 mm) was 57%, the “Kill (%)” value (mice [4]; 20—25 g Adult MICE, particle 0.2 × 0.5 mm) was 0% and the “Kill (%)” value (mice [4]; 20—25 g Adult MICE, particle 0.4 × 0.4 mm) was 100%. The “Kill (%)” value (mice [4]; 20—25 g Adult MICE, particle 0.5 × 0.5 mm) was 100%, the Kill (male LACA mice [5]) was 2 out of 5 and the Kill ([6]; Day 1) was 3 out of 5. For the same compound, the Kill ([6]; Day 3) was “Remaining rat killed”, the death of mice ([7]; 100 ppm aldicarb on 0.4 x 0.4 mm particles) was “All mice died” and the “Mouse Kill %” value [7, 16] was 100%. The “Mouse Kill %” value [7, 17] was 30%, the “Mouse Kill %” value ([7]; 100 ppm as HOMOGENEOUS) was 0% and the “Mouse bait particles Rat Kill” value ([8]; Day 1) was 0/5. For the same compound, the “Mouse bait particles Rat Kill” value ([8]; Day 2) was 0/5, the “Mouse bait particles Rat Kill” value ([8]; Day 3) was 0/5 and the “Mouse bait particles Rat Kill” value ([8]; Day 4) was 0/5. For the same compound, the “Mouse bait particles Rat Kill” value ([8]; Day 5 to 7) was 0/5, the “kill of rats feeding on the mouse bait” value ([8]; 0.1 mg particles, 50 ppm bait, seven days of feeding) was “not killed even after seven days” and the “Mouse bait particles Mouse Kill” value (male 12-18 gram LAC mice; Day 1) was 4 out of 10. For the same compound, the “Mouse bait particles Mouse Kill” value (male 12-18 gram LAC mice; Day 3) was “Remaining mouse died”, the “death of all animals” value (male 12-18 gram LAC mice; all mice feeding on the 0.1 mg particles, 50 ppm bait) was “died by the end of the third day” and the Kill (male LACA mice [9]; formulation A 0.2 mg aldicarb particles, Example 5) was 100%. The Kill (male LACA mice [9]; formulation A, one 0.2 mg particle per 2 grams of oatmeal, Day 1) was 4 out of 10, the “Kill (%)” value (Rats [10]; 60—80 g Weaner RATS, particle 0.75 × 0.75 mm) was 100% and the “Kill (%)” value (Rats [10]; 60—80 g Weaner RATS, particle 1.0 × 1.0 mm) was 100%. The “Kill (%)” value (Rats [10]; 60—80 g Weaner RATS, particle 1.5 × 3.0 mm) was 80%, the “Kill (%)” value (Rats [10]; 300—400 g Adult RATS, particle 0.75 × 0.75 mm) was 50% and the “Kill (%)” value (Rats [10]; 300—400 g Adult RATS, particle 1.0 × 1.0 mm) was 100%. For the same compound, the “Kill (%)” value (Rats [10]; 300—400 g Adult RATS, particle 1.5 × 3.0 mm) was 100%, the “Kill Mouse” value (male LACA mice [11]; Day 1) was 0 out of 10 and the “Kill Mouse” value (male LACA mice [11]; Day 2) was 0 out of 10. For the same compound, the “Kill Mouse” value (male LACA mice [11]; Day 3) was 0 out of 10, the “Kill Mouse” value (male LACA mice [11]; Day 4) was 0 out of 10 and the kills recorded (male LACA mice [11]; 100 ppm aldicarb, mice, after 4 days exposure) was “no kills”. The Kill [12] was “All killed”, the “Kill Rat” value (female Wistar rats; Day 1) was 0 out of 5 and the “Kill Rat” value (female Wistar rats; Day 2) was 0 out of 5. The “Kill Rat” value (female Wistar rats; Day 3) was 0 out of 5, the kills recorded (female Wistar rats; 100 ppm aldicarb, rats, after 3 days exposure) was “no kills” and the death of rabbits [13] was “No rabbits died”. For the same compound, the mortality at 120 h (in vivo) was 0%, the Kill (Wistar females; Day 1) was 2 out of 5 and the Kill (Wistar females; Day 3) was “Remaining rat killed”. For the same compound, the Kill (male LACA mice [14]; [18]) was 40%, the “mice killed (total of Example 4)” value (male LACA mice [14]; [18]) was 4 out of 10 and the Kill (male LACA mice [14]; formulation A, one 0.5 mg particle per 10 grams of oatmeal, Day 1) was 1 out of 10. For the same compound, the “Rat bait particles Rat Kill” value ([15]; Day 1) was 2 out of 5, the “Rat bait particles Rat Kill” value ([15]; Day 3) was “Remaining rat died” and the “death of all animals” value ([15]; all rats feeding on the 1 mg particles, 50 ppm bait) was “died by the end of the third day”.
